Reference: patent publication US20220315888A1, “CULTURE METHOD FOR RETINAL ORGANOIDS” (University of Newcastle Upon Tyne, priority 2019, published 2022)
“Also recorded” adds a separate entry of the source.

Assays:
Format in all cases: cell-based, human
[1] = tested on: Rhodopsin expression in retinal organoids derived from hESCs; assay: Immunohistochemistry quantification of Rhodopsin+ cells (rods) at day 150; details: addition day 90-120, organoids at day 150, compared to vehicle control
Method: Human Pluripotent Stem Cells differentiation to retinal organoids Retinal organoids were differentiated from the CRX-GFP H9 human ESC cell line using a feeder-free system. ESCs were expanded in […] Technologies, 05850) at 37° C. and 5% CO2 on 6 well plates pre-coated with Low Growth Factor Matrigel (Corning, 354230). The retinal organoids were generated following a protocol described in Collin et al., 2019 [25] with addition of various supplements, which are shown in FIG. 1. […] DAPT was only added from day 30-42 (for day 30-60 combined addition with RA from day 30-60), day 60-72 (for the combined addition with RA from day 60-90), day 90-102 (for the combined addition with RA from day 90-120) and day 30-42 (for the combined addition with RA from day 30-120). Retinal organoids were collected on day 150 and fixed in 2% PFA for 30 minutes, followed by three washes in Phosphate-buffered saline (PBS), incubated overnight in 30% sucrose in PBS, embedded in Optical Cutting medium (OCT) ([…], UK) and frozen at -20° C. Ten-micrometre cryostat sections were collected using a Leica Cm1860 cryostat (Leica, Germany) onto Superfrost Plus slides and stored at -20° C. in slide boxes prior to immunostaining. Cryosections were air-dried, washed several times in PBS and incubated in blocking solution (10% normal goat serum, 0.3% Triton-X-100 in PBS) for one hour at room temperature. Slides were incubated with the appropriate primary antibody overnight at 4° C. (Table 2). After rinsing with PBS, sections were incubated with the secondary antibody for 2 hours at room temperature. Alexa Fluor 647 and 546 secondary antibodies (InvitrogenMolecular Probes) were used at a 1:1000 dilution. Negative controls were carried out by omitting the primary antibody. Afterwards, sections were washed three times in PBS and mounted with Vectashield (Vector Laboratories, Burlingame, Calif.) containing Hoechst (LifeTechnologies, UK). Images were captured using an Axio Imager upright microscope with Apotome (Zeiss, Germany) structured illumination fluorescence using 20× objective and 63× oil objective operated with AxioVision software. Final images are presented as a maximum projection and adjusted for brightness and contrast in Adobe Photoshop (Adobe Systems). Cell image quantitation was performed using the MATLAB software (Mathworks, MA) following the protocol described in Dorgau et al., 2019 [26]. A minimum of eight individual retinal organoids were analysed for each condition. All results were further analysed using Microsoft Excel and Prism (GraphPad, USA).

retinal organoids = assay: Retinal organoid lamination and tissue architecture at day 150; details: day 150 of differentiation
Method: (§1) Human Pluripotent Stem Cells differentiation to retinal organoids Retinal organoids were differentiated from the CRX-GFP H9 human ESC cell line using a feeder-free system. ESCs were expanded in mTeSR™1 (StemCell Technologies, 05850) at 37° C. and 5% CO2 on 6 well plates pre-coated with Low Growth Factor Matrigel (Corning, 354230). The retinal organoids were generated following a protocol described in Collin et al., 2019 [25] with addition of various supplements, which are shown in FIG. 1.
The tested supplements include Retinoic Acid (RA) (0.5 μM or 1 μM Sigma-Aldrich UK), 9-cis-retinal (0.5 μM, Sigma-Aldrich UK), 11-cis-retinal (0.5 μM, BOC Sciences), Levodopa (0.5 μM, Sigma-Aldrich UK), Triiodothyronine (T3) (20 ng/ml or 40 ng/ml, Sigma-Aldrich) and DAPT (10 μM Sigma-Aldrich UK) singly or in combination with each other from day 18 of differentiation for specific durations (day 18 onwards, day 30-60, day 60-90, day 90-120 and day 30-120), except for DAPT (FIG. 1). […]
(§2) Images were captured using an Axio Imager upright microscope with Apotome (Zeiss, Germany) structured illumination fluorescence using 20× objective and 63× oil objective operated with AxioVision software. […]

[2] = tested on: OPN1MW/LW (L/M cones) expression in retinal organoids derived from hESCs; assay: Immunohistochemistry quantification of OPN1MW/LW+ cells (L/M cones) at day 150; details: addition day 30-120; organoids at day 150; compared to vehicle control
Method: as §1, with “1. […]” for “1.”
as §2
Cell image quantitation was performed using the MATLAB software (Mathworks, MA) following the protocol described in Dorgau et al., 2019 [26]. A minimum of eight individual retinal organoids were analysed for each condition. All results were further analysed using Microsoft Excel and Prism (GraphPad, USA).

| SMILES | Rhodopsin+ cells (rods), immunohistochemistry quantification [1] | Effect on tissue architecture and lamination of the retinal organoids (retinal organoids) | Rhodopsin+ cells (rods), immunohistochemistry quantification ([1]; listed as RA alone) | OPN1MW/LW+ cells (L/M cones), IHC quantification [2] |
| --- | --- | --- | --- | --- |
| CC1=C(/C=C/C(C)=C\C=C\C(C)=C\C=O)C(C)(C)CCC1 [9-cis-retinal] | lower |  |  |  |
| CC1=C(/C=C/C(C)=C/C=C/C(C)=C/C=O)C(C)(C)CCC1 [11-cis-retinal] | lower; also recorded: reduction |  |  |  |
| C[C@H](NC(=O)Cc1cc(F)cc(F)c1)C(=O)N[C@H](C(=O)OC(C)(C)C)c1ccccc1 [DAPT] |  | did not interfere |  |  |
| CC1=C(/C=C/C(C)=C/C=C/C(C)=C/C(=O)O)C(C)(C)CCC1 [RA, all-trans-retinoic acid] | reduction |  | lower | significantly enhanced |
